Source: patent US20130280204A1 (priority 2007, published 2013)
Where two headings read alike, the source gives them in different places.

Key:
TKY virus = format: cell-based, influenza A virus H4N2; conditions: t=15 min
[1] = tested on: avian influenza A/turkey/MN/833/80 (TKY); experiment: microbe, parasite or virus in culture; format: cell-based, influenza A virus H4N2
[2] = tested on: A/Nanchang/933/95 (Nanchang) virus; parameters: species or system ferrets; conditions: in vivo
[3] = target: viral NA of TKY Wild-type (Influenza A virus (A/turkey/Minnesota/833/1980(H4N2)), UniProt Q20NP0); format: biochemical; conditions: read-out: Ki (nM, based on ZA) Wild-type
Chain of viral NA of TKY Wild-type (Influenza A virus (A/turkey/Minnesota/833/1980(H4N2)), UniProt Q20NP0) (Q20NP0 whole entry, looked up): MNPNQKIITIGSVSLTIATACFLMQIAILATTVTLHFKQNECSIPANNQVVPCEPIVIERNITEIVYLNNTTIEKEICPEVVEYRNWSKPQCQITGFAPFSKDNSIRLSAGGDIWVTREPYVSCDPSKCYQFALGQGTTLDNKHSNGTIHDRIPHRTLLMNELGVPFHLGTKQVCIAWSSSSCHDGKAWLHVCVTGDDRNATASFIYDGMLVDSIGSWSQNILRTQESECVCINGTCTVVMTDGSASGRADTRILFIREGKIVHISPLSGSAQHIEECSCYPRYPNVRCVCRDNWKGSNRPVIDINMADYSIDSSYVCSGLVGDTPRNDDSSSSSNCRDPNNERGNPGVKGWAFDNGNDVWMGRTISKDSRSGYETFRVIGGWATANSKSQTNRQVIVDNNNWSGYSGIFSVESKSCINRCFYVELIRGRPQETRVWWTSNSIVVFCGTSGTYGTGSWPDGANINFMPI

TKY Drug-free p23 (DF23) = format: cell-based, influenza A virus H4N2; conditions: read-out: IC50 (nM, based on ZA) Drug-free p23
TKY Wild-type = format: cell-based, influenza A virus H4N2; conditions: read-out: IC50 (nM, based on ZA) Wild-type
[4] = tested on: human influenza A/Wuhan/359/95 (Wuhan); experiment: microbe, parasite or virus in culture; format: cell-based, influenza A virus H3N2
[5] = tested on: avian strain A/Turkey/MN/80 (TKY); format: cell-based, influenza A virus H4N2
WSN strain = tested on: WSN strain; parameters: species or system Balb/C mice; conditions: mouse, in vivo
[6] = target: viral NA of TKY Drug-free p23 (DF23) (Influenza A virus (A/turkey/Minnesota/833/1980(H4N2)), UniProt Q20NP0); format: biochemical; conditions: read-out: Ki (nM, based on ZA) Drug-free p23
Chain of viral NA of TKY Drug-free p23 (DF23) (Influenza A virus (A/turkey/Minnesota/833/1980(H4N2)), UniProt Q20NP0) (Q20NP0 whole entry, looked up): as above

active site of NA = conditions: read-out: affinity constant for the active site of NA; cited from earlier work
influenza A/WSN/33 (WSN) = experiment: microbe, parasite or virus in culture; format: cell-based, influenza A virus H1N1; conditions: read-out: IC50 (nM 1) WSN

**Q.** Which “viral particles inside the cells” value (TKY virus) does the source give for NC12CC3CC(CC(C3)C1)C2 [amantadine] here?
**A.** Its value is “accumulation of viral particles inside the cells”.

**Q.** For CC(=O)N[C@H]1[C@H]([C@H](O)[C@H](O)CO)OC(C(=O)O)=C[C@@H]1N=C(N)N [compound 1, zanamivir], which IC50 ([1]; H4N2, read-out: IC50 (nM Sugar) Turkey/WT (H4N2)) is on record?
**A.** The IC50 was 20000 nM.

**Q.** And the “reduction in nasal wash viral titer compared to PBS controls, day 4 p.i.” value [2]?
**A.** The value was “did not”.

**Q.** What about the “reduction in nasal wash viral titer compared to PBS controls, day 6 p.i.” value [2] of the same compound?
**A.** Its value is “did not”.

**Q.** What about the “reduction in nasal wash viral titer compared to PBS-treated group, day 2 p.i.” value [2] of the same compound?
**A.** Its value is 38 fold.

**Q.** And the Ki [3]?
**A.** The Ki was 5.3 ± 0.4 nM.

**Q.** What about the IC50 (TKY Drug-free p23 (DF23)) of the same compound?
**A.** The IC50 was 38 ± 31 nM.

**Q.** What about the IC50 (TKY Wild-type) of the same compound?
**A.** The IC50 was 56 ± 8 nM.

**Q.** And the IC50 ([4]; H3N2, read-out: IC50 (nM Sugar) Wuhan (H3N2))?
**A.** The IC50 was 20000 nM.

**Q.** What about the “change of potency (IC50), early and late vs late only” value [5] of the same compound?
**A.** Its value is “remained the same”.

**Q.** And the “drop of viral titers in lung homogenates vs untreated mice” value (WSN strain)?
**A.** Its value is 20 fold.

**Q.** And the Ki [6]?
**A.** The Ki was 8.8 ± 5.6 nM.

**Q.** And the Kd (active site of NA)?
**A.** Its Kd is 0.0001 to 0.001 µM.

**Q.** With CC(=O)NC1C(NC(=N)N)C=C(C(=O)O)OC1C(OC(=O)NCCOCCN)C(O)CO (stereo not shown) [compound 3, 3-Acetamido-2-(1-(((2-(2-aminoethoxy)ethyl)carbamoyl)oxy)-2,3-dihydroxypropyl)-4-guanidino-3,4-dihydro-2H-pyran-6-carboxylic acid] as the compound, how does the IC50 ([1]; read-out: IC50 (nM 1) TKY) read?
**A.** The IC50 was 1.4e+06 nM.

**Q.** And the IC50 (influenza A/WSN/33 (WSN))?
**A.** The IC50 was 57000 nM.

**Q.** What about the IC50 ([4]; read-out: IC50 (nM 1) Wuhan) of the same compound?
**A.** The IC50 was 1.3e+06 nM.

**Q.** Which results are given for CC(=O)NC1C(NC(=N)N)C=C(C(=O)O)OC1C(OC(=O)Nc1ccc(CN)cc1)C(O)CO (stereo not shown) [compound 4, 3-Acetamido-2-(1-(((4-(aminomethyl)phenyl)carbamoyl)oxy)-2,3-dihydroxypropyl)-4-guanidino-3,4-dihydro-2H-pyran-6-carboxylic acid]?
**A.** IC50 ([1]; read-out: IC50 (nM 1) TKY): 2.3e+06 nM; IC50 (influenza A/WSN/33 (WSN)): 76000 nM; IC50 ([4]; read-out: IC50 (nM 1) Wuhan): 840000 nM
